Legend:
[1] = molecular target: Adenosine A2a (ADORA2A) receptor (Homo sapiens (Human), UniProt P29274); experiment: ADORA2A Receptor Binding Assay; conditions: radioligand binding, membrane stock
Outline: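 Test compounds incubated with A2a receptor membranes and a ³H-labelled radioligand for 2 hours at room temperature, then filtered through PEI-presoaked GF/C plates and washed. Filter-bound ³H counted by scintillation; % inhibition calculated from background-subtracted signal relative to high control.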

[2] = molecular target: Adenosine A2B (ADORA2B) receptor (Homo sapiens (Human), UniProt P29275); experiment: ADORA2B Receptor Binding Assay; conditions: radioligand binding, membrane stock
Outline: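 Radioligand competition binding on human A2B receptor membranes, 1 h at room temperature, then filtration through BSA-presoaked GF/C filters and ³H counting by scintillation. Inhibition expressed as % of high control after background subtraction.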

Sequence of Adenosine A2a (ADORA2A) receptor (P29274 whole entry): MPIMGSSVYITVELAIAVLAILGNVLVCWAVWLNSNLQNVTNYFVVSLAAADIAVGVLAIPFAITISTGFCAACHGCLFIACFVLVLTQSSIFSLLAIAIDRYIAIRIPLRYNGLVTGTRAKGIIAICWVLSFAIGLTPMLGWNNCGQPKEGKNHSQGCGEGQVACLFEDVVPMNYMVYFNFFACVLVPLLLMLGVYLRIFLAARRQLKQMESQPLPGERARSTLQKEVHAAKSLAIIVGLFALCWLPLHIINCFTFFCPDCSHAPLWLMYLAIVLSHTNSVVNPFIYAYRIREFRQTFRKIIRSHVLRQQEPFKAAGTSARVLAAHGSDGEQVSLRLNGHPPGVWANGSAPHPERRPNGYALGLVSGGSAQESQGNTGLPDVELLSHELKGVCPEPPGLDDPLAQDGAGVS
Sequence of Adenosine A2B (ADORA2B) receptor (P29275 whole entry): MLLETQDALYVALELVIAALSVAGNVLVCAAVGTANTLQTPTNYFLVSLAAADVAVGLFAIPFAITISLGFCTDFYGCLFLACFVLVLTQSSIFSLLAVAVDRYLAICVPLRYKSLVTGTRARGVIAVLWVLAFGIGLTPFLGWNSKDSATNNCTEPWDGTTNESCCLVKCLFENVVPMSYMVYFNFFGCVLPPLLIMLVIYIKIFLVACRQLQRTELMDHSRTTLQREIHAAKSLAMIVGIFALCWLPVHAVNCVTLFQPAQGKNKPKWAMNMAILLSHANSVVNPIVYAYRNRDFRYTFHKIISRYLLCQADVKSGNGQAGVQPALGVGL

Structure (SMILES) | IC50 [1] | IC50 [2]
Cc1nc2c(Br)c(N)nc(-c3ccc(F)cc3)n2n1 [Compound 83, 8-bromo-5-(4-fluorophenyl)-2-methyl-[1,2,4]triazolo[1,5-c]pyrimidin-7-amine] | 10 to 100 nM | 100 to 1000 nM
Cc1nc2cc(N)nc(-c3ccc(S(=O)(=O)N(C)C)cc3)n2n1 [Compound 119, 4-(7-amino-2-methyl-[1,2,4]triazolo[1,5-c]pyrimidin-5-yl)-N,N-dimethylbenzenesulfonamide] | > 1000 nM | > 1000 nM
CC(=O)Nc1cc2nc(C)nn2c(-c2ccc(Br)o2)n1 [Compound 90, N-[5-(5-bromofuran-2-yl)-2-methyl-[1,2,4]triazolo[1,5-c]pyrimidin-7-yl]acetamide] | < 10 nM | < 10 nM
CC(=O)Nc1cc2nc(C(C)C)nn2c(-c2ccco2)n1 [Compound 48, N-[5-(furan-2-yl)-2-propan-2-yl-[1,2,4]triazolo[1,5-c]pyrimidin-7-yl]acetamide] | < 10 nM | < 10 nM
Cc1nc2cc(NC(=O)C3CC3)nc(-c3cccc(F)c3)n2n1 [Compound 131, N-[5-(3-fluorophenyl)-2-methyl-[1,2,4]triazolo[1,5-c]pyrimidin-7-yl]cyclopropanecarboxamide] | < 10 nM | 10 to 100 nM
Cc1nc2cc(N)nc(-c3cccc(F)c3)n2n1 [Compound 142, 5-(3-fluorophenyl)-2-methyl-[1,2,4]triazolo[1,5-c]pyrimidin-7-amine] | 10 to 100 nM | 100 to 1000 nM
CC(=O)Nc1cc2nc(C)nn2c(-c2cccc(F)c2)n1 [Compound 132, N-[5-(3-fluorophenyl)-2-methyl-[1,2,4]triazolo[1,5-c]pyrimidin-7-yl]acetamide] | 10 to 100 nM | 100 to 1000 nM
Cc1nc2cc(NC(=O)N3CC[C@@H](O)C3)nc(-c3ccco3)n2n1 [Compound 104, (3R)-N-[5-(furan-2-yl)-2-methyl-[1,2,4]triazolo[1,5-c]pyrimidin-7-yl]-3-hydroxypyrrolidine-1-carboxamide] | 100 to 1000 nM | > 1000 nM
Cc1nc2cc(NC(=O)NCCN3CCCCC3)nc(-c3ccco3)n2n1 [Compound 158, 1-[5-(furan-2-yl)-2-methyl-[1,2,4]triazolo[1,5-c]pyrimidin-7-yl]-3-(2-piperidin-1-ylethyl)urea] | < 10 nM | 10 to 100 nM
Cc1nc2c(Cl)c(N)nc(-c3ccccn3)n2n1 [Compound 74, 8-chloro-2-methyl-5-pyridin-2-yl-[1,2,4]triazolo[1,5-c]pyrimidin-7-amine] | 10 to 100 nM | > 1000 nM
Cc1nc2cc(NC(=O)C3CC3)nc(-c3cnn(C)c3)n2n1 [Compound 70, N-[2-methyl-5-(1-methylpyrazol-4-yl)-[1,2,4]triazolo[1,5-c]pyrimidin-7-yl]cyclopropanecarboxamide] | 100 to 1000 nM | > 1000 nM
Cc1nc2cc(NC(=O)C3CC3)nc(-c3ccc(F)o3)n2n1 [Compound 85, N-[5-(5-fluorofuran-2-yl)-2-methyl-[1,2,4]triazolo[1,5-c]pyrimidin-7-yl]cyclopropanecarboxamide] | < 10 nM | < 10 nM
CNC(=O)Nc1cc2nc(C)nn2c(-c2ccc(F)c(F)c2)n1 [Compound 140, 1-[5-(3,4-difluorophenyl)-2-methyl-[1,2,4]triazolo[1,5-c]pyrimidin-7-yl]-3-methylurea] | 10 to 100 nM | 100 to 1000 nM
Cc1nc2c(Cl)c(N)nc(-c3ccccc3)n2n1 [Compound 33, 8-chloro-2-methyl-5-phenyl-[1,2,4]triazolo[1,5-c]pyrimidin-7-amine] | < 10 nM | 10 to 100 nM
Cc1nc2c(Cl)c(N)nc(-c3ccc(F)c(F)c3)n2n1 [Compound 141, 8-chloro-5-(3,4-difluorophenyl)-2-methyl-[1,2,4]triazolo[1,5-c]pyrimidin-7-amine] | 10 to 100 nM | 100 to 1000 nM
Cc1nc2cc(NC(=O)N3CC[C@H](O)C3)nc(-c3ccco3)n2n1 [Compound 107, (3S)-N-[5-(furan-2-yl)-2-methyl-[1,2,4]triazolo[1,5-c]pyrimidin-7-yl]-3-hydroxypyrrolidine-1-carboxamide] | > 1000 nM | > 1000 nM
Cc1nc2cc(N)nc(-c3ccc(F)c(F)c3)n2n1 [Compound 130, 5-(3,4-difluorophenyl)-2-methyl-[1,2,4]triazolo[1,5-c]pyrimidin-7-amine] | 10 to 100 nM | 100 to 1000 nM
Cc1nc2cc(NC(=O)C3CC3)nc(-c3ccc(C#N)cc3)n2n1 [Compound 56, N-[5-(4-cyanophenyl)-2-methyl-[1,2,4]triazolo[1,5-c]pyrimidin-7-yl]cyclopropanecarboxamide] | 100 to 1000 nM | > 1000 nM
Cc1nc2c(Cl)c(N)nc(-c3ccc(F)cc3)n2n1 [Compound 80, 8-chloro-5-(4-fluorophenyl)-2-methyl-[1,2,4]triazolo[1,5-c]pyrimidin-7-amine] | 10 to 100 nM | 100 to 1000 nM
CC(=O)Nc1cc2nc(C)nn2c(-c2cccc(C(C)=O)c2)n1 [Compound 93, N-[5-(3-acetylphenyl)-2-methyl-[1,2,4]triazolo[1,5-c]pyrimidin-7-yl]acetamide] | > 1000 nM | > 1000 nM
Cc1nc2c(Cl)c(N)nc(-c3ccc(C)s3)n2n1 [Compound 40, 8-chloro-2-methyl-5-(5-methylthiophen-2-yl)-[1,2,4]triazolo[1,5-c]pyrimidin-7-amine] | < 10 nM | < 10 nM

Other lines, results leading:

IC50 [1] | IC50 [2] | Structure (SMILES)
< 10 nM | 10 to 100 nM | Cc1nc2c(F)c(NC(=O)C3CC3)nc(-c3ccc(C)o3)n2n1 [Compound 39, N-[8-fluoro-2-methyl-5-(5-methylfuran-2-yl)-[1,2,4]triazolo[1,5-c]pyrimidin-7-yl]cyclopropanecarboxamide]
< 10 nM | 10 to 100 nM | Cc1nc2c(F)c(N)nc(-c3ccc(C)o3)n2n1 [Compound 30, 8-fluoro-2-methyl-5-(5-methylfuran-2-yl)-[1,2,4]triazolo[1,5-c]pyrimidin-7-amine]
10 to 100 nM | 100 to 1000 nM | Cc1ccc(-c2nc(N)cn3cc(C(F)(F)F)nc23)o1 [Compound 195, 8-(5-methylfuran-2-yl)-2-(trifluoromethyl)imidazo[1,2-a]pyrazin-6-amine]
10 to 100 nM | 10 to 100 nM | Cc1nc2c3cn[nH]c3nc(-c3ccc(C)o3)n2n1 [Compound 102, 4-methyl-7-(5-methylfuran-2-yl)-3,5,6,8,10,11-hexazatricyclo[7.3.0.0^2,6]dodeca-1(9),2,4,7,11-pentaene]
< 10 nM | 10 to 100 nM | Cc1ccc(-c2nc3[nH]c(C(C)(C)O)cc3c3nc(C(C)C)nn23)o1 [Compound 162, 2-[7-(5-methylfuran-2-yl)-4-propan-2-yl-3,5,6,8,10-pentazatricyclo[7.3.0.0^2,6]dodeca-1(9),2,4,7,11-pentaen-11-yl]propan-2-ol]
< 10 nM | < 10 nM | Cc1nc2c3cc[nH]c3nc(-c3ccc(C)o3)n2n1 [Compound 35, 4-methyl-7-(5-methylfuran-2-yl)-3,5,6,8,10-pentazatricyclo[7.3.0.0^2,6]dodeca-1(9),2,4,7,11-pentaene]
10 to 100 nM | 10 to 100 nM | CC(=O)Nc1cn2cc(C)nc2c(-c2ccco2)n1 [Compound 211, N-[8-(furan-2-yl)-2-methylimidazo[1,2-a]pyrazin-6-yl]acetamide]
< 10 nM | < 10 nM | Cc1nc2c3cc(C)[nH]c3nc(-c3ccc(C)o3)n2n1 [Compound 45, 4,11-dimethyl-7-(5-methylfuran-2-yl)-3,5,6,8,10-pentazatricyclo[7.3.0.0^2,6]dodeca-1(9),2,4,7,11-pentaene]
10 to 100 nM | 100 to 1000 nM | Cc1ccc(-c2nc3c(c4nc(C(C)C)nn24)C(C)(C)CN3)o1 [Compound 36, 12,12-dimethyl-7-(5-methylfuran-2-yl)-4-propan-2-yl-3,5,6,8,10-pentazatricyclo[7.3.0.0^2,6]dodeca-1(9),2,4,7-tetraene]
10 to 100 nM | 10 to 100 nM | Nc1nc(-c2ccccc2)c2nc(C(F)(F)F)cn2c1Cl [Compound 204, 5-chloro-8-phenyl-2-(trifluoromethyl)imidazo[1,2-a]pyrazin-6-amine]
< 10 nM | < 10 nM | Cc1cc2c(nc(-c3ccc(C)o3)n3nc(C(F)(F)F)nc23)[nH]1 [Compound 88, 11-methyl-7-(5-methylfuran-2-yl)-4-(trifluoromethyl)-3,5,6,8,10-pentazatricyclo[7.3.0.0^2,6]dodeca-1(9),2,4,7,11-pentaene]
10 to 100 nM | 100 to 1000 nM | COc1ccc(Cc2nc3cc(N)nc(-c4ccc(C)o4)n3n2)cc1 [Compound 3, 2-[(4-methoxyphenyl)methyl]-5-(5-methylfuran-2-yl)-[1,2,4]triazolo[1,5-c]pyrimidin-7-amine]
100 to 1000 nM | > 1000 nM | CNc1nc(-c2ccc(C)o2)n2nc(C)nc2c1Cl [Compound 23, 8-chloro-N,2-dimethyl-5-(5-methylfuran-2-yl)-[1,2,4]triazolo[1,5-c]pyrimidin-7-amine]
< 10 nM | < 10 nM | Cc1nc2c(Cl)c(N)nc(-c3ccc(C)o3)n2n1 [Compound 11, 8-chloro-2-methyl-5-(5-methylfuran-2-yl)-[1,2,4]triazolo[1,5-c]pyrimidin-7-amine]
< 10 nM | 10 to 100 nM | Cc1nc2cc(N)nc(-c3ccc(C)o3)n2n1 [Compound 1, 2-Methyl-5-(5-methylfuran-2-yl)-[1,2,4]triazolo[1,5-c]pyrimidin-7-amine]
< 10 nM | < 10 nM | Cc1nc2c(C#N)c(N)nc(-c3ccc(C)o3)n2n1 [Compound 26, 7-amino-2-methyl-5-(5-methylfuran-2-yl)-[1,2,4]triazolo[1,5-c]pyrimidine-8-carbonitrile]
